According to article PMC11048033, “Dual Anti-Inflammatory and Anticancer Activity of Novel 1,5-Diaryl Pyrazole Derivatives: Molecular Modeling, Synthesis, In Vitro Activity, and Dynamics Study” (Biomedicines, 2024):

Assays:
[1] = test system: A549 (human lung adenocarcinoma) cell line; test: MTT anticancer assay, A549; type: cell-based; settings: for IC50 against A549: MTT
Method: (§1) The in vitro anticancer activity is determined by counting the viable cells that are stained with a vital dye. The MTT technique is an accurate measure of the activity of live cells using mitochondrial dehydrogenases. The target tumor cells A549 (human lung adenocarcinoma) and HEPG2 (human liver) cell lines are procured from the “National Centre for Cell Science” (NCCS, Pune). The sources of reagents like Trypsin, DMEM, Pen strip, and FBS are procured from Himedia. […] The culture medium was prepared, and the MTT assay was performed as per the general procedure described by Mosmann T. et al., [30] and the % viability of the cells was determined.
(§2) The target compounds tested for in vitro COX-2 were further checked for in vitro anti-cancer activity against A549 (lung cancer) and HepG2 (liver cancer) cell lines using MTT growth inhibition assay. The compounds were tested for cytotoxicity against both the cell lines at concentrations of 6.25, 12.5, 25, 50, and 100 µg/mL. […] Using the graph where % cell viability is plotted versus concentration, the IC50 values are determined with the help of the dose–response regression equation.

[2] = test system: HEPG2 (human liver) cell line; test: MTT anticancer assay, HepG2; type: cell-based; settings: for IC50 against HepG2: MTT
Method: as §1, §2

[3] = biological target: BSA (bovine albumin serum) (Bos taurus, UniProt P02769); test: Protein (albumin) denaturation assay; settings: maximum inhibition; compounds tested at 50-200 µg/mL, diclofenac 100 µg/mL
Method: Mizushima and Kobayashi’s technique was employed for the determination of in vitro anti-inflammatory activity by the protein denaturation method for the synthesized compounds. […] Then, a mixture of 500µL of 1% aqueous solution of BSA (bovine albumin serum) and 1.4 mL of phosphate buffer saline (PBS, pH 7.4) was added to 100 µL of varying concentrations of the synthesized compounds 50, 100, and 200 µg/mL. […] The mixtures are then incubated for 15 min at 37 °C and then heated for 10 min at 60 °C. The absorbance was measured at 660nm (SHIMADZU, UV-1800 Spectrophotometer) upon cooling. […] The entire experiment was done in triplicate, and the average was calculated. % inhibition of protein denaturation was calculated by: % inhibition=Absorbance of Control−Absorbance of Sample/Absorbance of Control×100
The anti-inflammatory capacity of the target compound was evaluated using the protein denaturation assay.

human COX-1 = biological target: T1, human COX-1 (Homo sapiens, UniProt P23219); test: In vitro COX-1 enzymatic assay (Cayman COX (human) Inhibitor Screening Assay Kit); type: biochemical; settings: for COX-1 IC50: human COX-1
T1 construct: purchased Cayman chemicals 701230
Method: The ability of the compounds to inhibit COX -2 (IC50 values, µM) was determined by using a “COX (human) Inhibitor Screening Assay Kit” procured from Cayman Chemicals (catalog number 701230). With a slight modification in the method as defined in the reference, the COX-2 inhibition assay was performed. Using the percent conversion of arachidonic acid (AA) to PGH2, the enzyme activity was calculated. By enzyme immunoassay PGF2α, which is produced from PGH2 by reduction with stannous chloride, is calculated. The test compounds’ stock solutions are prepared by dissolving in a minimum amount of DMSO. Human COX-2 (10 µL) in the presence of 10 µL of heme was suspended in 0.1M Tris-HCl buffer (pH 8.0) which contains 2 mM phenol and 5 mM EDTA. This was added to various concentrations of test compounds and, on incubating the solutions at 37 °C for 5 min, 10 µL of AA solution were added. Later, the COX reaction was stopped by adding 1M HCl (50 µL) after 2 min. The intensity of the yellow color which is produced as the product of the enzymatic reaction is determined spectrophotometrically. The percent inhibition was calculated by comparing the compound treated to different control incubations. Celecoxib is utilized as the standard for the assay. The determinations are done in triplicate and the IC50 (µM) was determined using the concentration–inhibition response curve.
During the initiation of the inflammatory process, the COX enzyme plays a vital role in the progression of inflammatory response. The inflammatory mediators that arise due to the action of COX lead to the chemoattraction of neutrophils, macrophages, eosinophils, etc. Due to the involvement of COX in inflammatory diseases, inhibitors of this enzyme can help in designing effective therapeutic agents. […] This was carried out with the help of a COX (human) inhibitor screening assay kit (Item no. 701230) from Cayman chemicals. […] A test substance concentration was considered to be inhibitive when it inhibited human COX-1 or COX-2 by 50%. The compound’s selectivity was measured by its selectivity index values, derived as IC50 (COX-1)/IC50 (COX-2).

T1 sequence (P23219 24-599): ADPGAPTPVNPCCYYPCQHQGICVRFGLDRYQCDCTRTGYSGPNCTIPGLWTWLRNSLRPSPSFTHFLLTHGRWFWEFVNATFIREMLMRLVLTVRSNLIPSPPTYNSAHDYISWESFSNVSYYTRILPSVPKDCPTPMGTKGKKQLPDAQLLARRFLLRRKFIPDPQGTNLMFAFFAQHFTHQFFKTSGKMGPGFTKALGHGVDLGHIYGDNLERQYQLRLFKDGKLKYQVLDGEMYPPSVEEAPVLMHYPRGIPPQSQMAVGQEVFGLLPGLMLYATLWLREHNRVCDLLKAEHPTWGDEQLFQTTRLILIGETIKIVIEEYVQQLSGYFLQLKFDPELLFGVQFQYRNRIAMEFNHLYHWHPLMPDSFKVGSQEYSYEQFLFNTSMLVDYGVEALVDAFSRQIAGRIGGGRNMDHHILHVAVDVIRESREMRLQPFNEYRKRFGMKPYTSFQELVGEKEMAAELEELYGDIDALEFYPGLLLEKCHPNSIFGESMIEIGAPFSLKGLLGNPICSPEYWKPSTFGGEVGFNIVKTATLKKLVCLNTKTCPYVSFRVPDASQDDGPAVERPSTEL
Chain of BSA (bovine albumin serum) (P02769 25-607): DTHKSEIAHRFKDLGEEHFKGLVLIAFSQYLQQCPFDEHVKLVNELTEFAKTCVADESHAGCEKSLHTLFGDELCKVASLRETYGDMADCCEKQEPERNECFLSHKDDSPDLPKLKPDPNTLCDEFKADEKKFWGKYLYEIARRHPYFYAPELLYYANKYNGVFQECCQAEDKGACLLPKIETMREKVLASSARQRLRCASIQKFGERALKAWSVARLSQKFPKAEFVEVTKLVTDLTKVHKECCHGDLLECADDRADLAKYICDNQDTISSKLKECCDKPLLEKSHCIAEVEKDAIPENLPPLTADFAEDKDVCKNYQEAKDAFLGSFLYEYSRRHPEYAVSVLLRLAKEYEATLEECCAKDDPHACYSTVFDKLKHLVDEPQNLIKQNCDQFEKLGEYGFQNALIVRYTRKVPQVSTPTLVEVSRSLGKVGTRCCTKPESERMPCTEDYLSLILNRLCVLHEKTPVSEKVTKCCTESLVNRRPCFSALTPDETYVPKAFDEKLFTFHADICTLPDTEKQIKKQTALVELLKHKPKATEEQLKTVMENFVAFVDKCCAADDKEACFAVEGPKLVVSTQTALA

Compound | % cell viability ([1]; A549, 6.25 µg/ml) [%] | % cell viability ([1]; A549, 12.5 µg/ml) [%] | % cell viability ([1]; A549, 25 µg/ml) [%] | % cell viability ([1]; A549, 50 µg/ml) [%] | % cell viability ([1]; A549, 100 µg/ml) [%] | IC50 against A549 ([1]; A549) [µM] | % cell viability ([2]; HepG2, 6.25 µg/ml) [%] | % cell viability ([2]; HepG2, 12.5 µg/ml) [%] | % cell viability ([2]; HepG2, 25 µg/ml) [%] | % cell viability ([2]; HepG2, 50 µg/ml) [%] | % cell viability ([2]; HepG2, 100 µg/ml) [%] | IC50 against HepG2 [2] [µM] | % inhibition of albumin denaturation [3] [%] | % COX-1 Inhibition (human COX-1; 0.781 μg/ml) [%] | % COX-1 Inhibition (human COX-1; 1.562 μg/ml) [%] | % COX-1 Inhibition (human COX-1; 3.125 μg/ml) [%] | % COX-1 Inhibition (human COX-1; 6.25 μg/ml) [%] | % COX-1 Inhibition (human COX-1; 12.5 μg/ml) [%] | % COX-1 Inhibition (human COX-1; 25 μg/ml) [%] | % COX-1 Inhibition (human COX-1; 50 μg/ml) [%] | further results
Cc1cc(C=NNC(=O)c2cc(-c3ccc(Br)cc3)n(-c3ccc(S(N)(=O)=O)cc3)n2)cc(C)c1OCc1ccccc1 [Compound T5, 4-(3-(2-(4-(benzyloxy)-3,5-dimethylbenzylidene) hydrazine-1-carbonyl)-5-(4-bromophenyl)-1H-pyrazol-1-yl) benzenesulfonamide] | 97.15 | 92.32 | 72.36 | 62.43 | 30.52 | 60.95 | 84.40 | 73.66 | 73.42 | 54.76 | 39.32 | 66.93 | 70.87 | 14.39 ± 2.17 | 21.90 ± 2.60 | 45.47 ± 1.94 | 57.14 ± 2.17 | 72.58 ± 3.09 | 76.66 ± 1.30 | 84.01 ± 1.77 | concentration at which compound was effective (from % inhibitory values) ([2]; HepG2 cell lines): 50 µg/mL; % COX-1 Inhibition (human COX-1; 100 μg/ml): 88.49 ± 0.36%; % COX-1 Inhibition (human COX-1; 250 μg/ml): 91.75 ± 2.76%; COX-1 IC50 (human COX-1): 5.596 µM
NS(=O)(=O)c1ccc(-n2nc(C(=O)NN=Cc3cccc(Oc4ccccc4)c3)cc2-c2ccc(Cl)cc2)cc1 [Compound T3, 4-(5-(4-chlorophenyl)-3-(2-(3-phenoxybenzylidene) hydrazine-1-carbonyl)-1H-pyrazol-1-yl) benzenesulfonamide] | 95.77 | 86.16 | 60.37 | 46.16 | 24.18 | 40.14 | 84.39 | 84.40 | 73.65 | 73.62 | 54.76 | > 100 | 63.32 | 16.22 ± 0.61 | 24.62 ± 2.13 | 49.90 ± 2.32 | 61.14 ± 3.03 | 73.08 ± 1.76 | 77.09 ± 0.66 | 85.41 ± 0.12 | anti-cancer activity against A549 cell lines (in words) ([1]; A549): active; concentration at which compound was effective (from % inhibitory values) ([1]; A549 cell lines): 50 µg/mL; % COX-1 Inhibition (human COX-1; 100 μg/ml): 87.94 ± 0.94%; % COX-1 Inhibition (human COX-1; 250 μg/ml): 89.26 ± 0.71%; COX-1 IC50 (human COX-1): 4.655 µM
